Common to all, as to format: biochemical
One assay deals with T1, JAK1 (Homo sapiens, UniProt P23458).
T1 construct: 5 μl of catalytic domain recombinant Kinase enzyme+Tyr peptide substrate (Invitrogen, Calif.); purchased Invitrogen
In words: Z'-LYTE kinase assay, JAK1 tyrosine phosphorylation activity. Particulars: read-out: JAK 1 IC50. The method, then:
(§1) JAK and TYK2 tyrosine phosphorylation activity is measured using the Z′-LYTE™ Technology developed by Invitrogen Corporation (Carlsbad, Calif.). For JAK1, JAK2 and JAK3 the Z′-LYTE™ Kinase Assay Kit-Tyr6 Peptide (part number PV4122) was used. For TYK2 the Z′-LYTE™ Kinase Assay Kit-Tyr6 Peptide (part number PV3192) was used. The Z′-LYTE™ biochemical assay employs a fluorescence resonance energy transfer (FRET) coupled-enzyme format and is based on the differential sensitivity of phosphorylated and non-phosphorylated peptides to proteolitic cleavage. The assay uses a synthetic peptide substrate that is labelled with a donor fluorophore (coumarin) and an acceptor fluorophore (fluorescein) that make up a FRET pair. In the primary reaction (the Kinase Reaction), the kinase transfers the γ-phosphate of ATP to a single tyrosine residue on the substrate, while the presence of a kinase inhibitor in the primary reaction suppresses phosphorylation. In the secondary reaction (the Development Reaction), a site-specific protease (the Development Reagent) is added. The development buffer quenches the Kinase Reaction, while the protease recognizes and cleaves non-phosphorylated Z′-LYTE™ peptide substrate. Cleavage disrupts FRET between the donor and acceptor fluorophores on the non-phosphoryleted substrate, while uncleaved, phosphorylated substrate maintains FRET.
(§2) To test the ability of candidate molecules to inhibit JAK tyrosine phosphorylation activity, molecules are reconstituted in 100% DMSO and serially diluted 1:10 in polypropylene v-bottom microtiter plates. The candidate molecules are then diluted 1:25 into kinase buffer and 2.5 μl transferred into duplicate wells of a 384 well low volume black microtiter assay plate (Corning, USA). The final DMSO concentration in the assay is 1%. The kinase reaction contains 2.5 μl of a candidate molecule, 5 μl of catalytic domain recombinant Kinase enzyme+Tyr peptide substrate (Invitrogen, Calif.) and 2.5 μl ATP (Invitrogen, Calif.). The kinase reaction is allowed to procede for 1 hour at room temperature. The protease reaction is initiated by the addition of 5 μl Development Reagent (Invitrogen, Calif.). After 1 hour incubation at room temperature the fluorescence is measured using a FlexStation plate reader (Molecular Devices, Sunnyvale, Calif.). The reader settings used are as follows: Fluorescence mode, endpoint, top read, excitation 400 nm, emission 445 nm and 520 nm, Auto Cutoff 435 nm and 515 nm, PMT sensitivity high, 6 reads per well. Inhibition of JAK activity is calculated as the percent phosphorylation of substrate in the presence of inhibitor compared to the percent phosphorylation of substrate in the absence of inhibitor. IC50's were derived using Xlfit 4.3 (IDBS, UK), 4 parameter logistic model 205: Y=(A+((B−A)/(1+((C/x)^D)))).

A further assay deals with T2, JAK2 (Homo sapiens, UniProt O60674).
T2 construct: 5 μl of catalytic domain recombinant Kinase enzyme+Tyr peptide substrate (Invitrogen, Calif.); purchased Invitrogen
In words: Z'-LYTE kinase assay, JAK2 tyrosine phosphorylation activity. The method, then: as §1, §2

The next assay concerns the target T3, JAK3 (Homo sapiens, UniProt P52333).
T3 construct: 5 μl of catalytic domain recombinant Kinase enzyme+Tyr peptide substrate (Invitrogen, Calif.); purchased Invitrogen
The assay is described as follows: Z'-LYTE kinase assay, JAK3 tyrosine phosphorylation activity. The procedure:
as §1, §2

T2 sequence (O60674 849-1124 limits assumed): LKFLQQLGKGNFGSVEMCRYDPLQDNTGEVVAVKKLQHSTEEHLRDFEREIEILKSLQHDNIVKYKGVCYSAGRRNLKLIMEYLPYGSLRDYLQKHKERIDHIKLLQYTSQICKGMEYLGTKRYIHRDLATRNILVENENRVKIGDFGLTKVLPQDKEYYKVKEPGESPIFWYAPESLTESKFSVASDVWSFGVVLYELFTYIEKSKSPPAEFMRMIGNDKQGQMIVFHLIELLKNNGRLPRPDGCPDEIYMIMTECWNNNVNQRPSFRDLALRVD
T3 sequence (P52333 822-1111 limits assumed): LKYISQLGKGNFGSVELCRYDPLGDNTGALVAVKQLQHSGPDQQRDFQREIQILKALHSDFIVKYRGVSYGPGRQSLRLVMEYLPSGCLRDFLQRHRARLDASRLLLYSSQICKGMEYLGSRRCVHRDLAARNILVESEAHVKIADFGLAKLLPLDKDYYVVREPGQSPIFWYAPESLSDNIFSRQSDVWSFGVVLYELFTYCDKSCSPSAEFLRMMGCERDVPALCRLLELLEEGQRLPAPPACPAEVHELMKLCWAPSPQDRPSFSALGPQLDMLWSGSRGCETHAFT
T1 sequence (P23458 875-1153 limits assumed): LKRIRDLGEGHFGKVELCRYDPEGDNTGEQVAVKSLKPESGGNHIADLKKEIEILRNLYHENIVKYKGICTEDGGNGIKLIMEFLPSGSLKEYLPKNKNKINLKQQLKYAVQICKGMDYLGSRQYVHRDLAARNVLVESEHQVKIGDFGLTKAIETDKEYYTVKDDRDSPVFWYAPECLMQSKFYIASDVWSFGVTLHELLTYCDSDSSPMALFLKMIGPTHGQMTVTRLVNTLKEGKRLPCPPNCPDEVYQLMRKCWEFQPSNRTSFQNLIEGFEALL

Take `NC(=O)c1cnc(Nc2cccc(NC(=O)N3CCCC3)c2)cc1NCc1cccc(F)c1` [Example 309, 4-(3-fluorobenzylamino)-6-(3-(pyrrolidine-1-carboxamido)phenylamino)nicotinamide]: the IC50 lay within 100 to 1000 nM at JAK1, 10 to 100 nM at JAK2 and 1 to 10 nM against JAK3.
The compound `NC(=O)c1cnc(Nc2cccc(NC(=O)N3CC[C@@H](F)C3)c2)nc1NCc1ccccc1F` [Example 289, (R)-4-(2-fluorobenzylamino)-2-(3-(3-fluoropyrrolidine-1-carboxamido)phenylamino)pyrimidine-5-carboxamide] registered a 50% inhibitory concentration (IC50) at JAK3 of 10 to 100 nM.
Still for that read-out and setting: the value for `NC(=O)c1cnc(Nc2cccc(NC(=O)c3ccccn3)c2)nc1NCc1ccccc1F` [Example 295, 4-(2-fluorobenzylamino)-2-(3-(picolinamido)-phenylamino)pyrimidine-5-carboxamide] was 10 to 100 nM.
With `NC(=O)c1cnc(Nc2cccc(NC(=O)N3CCCC3)c2)cc1NCc1cccnc1` [Example 320, 4-(pyridin-3-ylmethylamino)-6-(3-(pyrrolidine-1-carboxamido)phenylamino)nicotinamide], the results for the IC50 on JAK1, against JAK2 and against JAK3 were above 1000 nM, 100 to 1000 nM and 10 to 100 nM, respectively.
`CC(=O)Nc1cccc(Nc2ncc(C(N)=O)c(NCC3CCCC3)n2)c1` [Example 280, 2-(3-acetamidophenylamino)-4-(cyclopentylmethylamino)pyrimidine-5-carboxamide] displayed an IC50 on JAK3 below 1 nM.
The same measure, in the same setting: the value for `NC(=O)c1cnc(Nc2ccc(F)c(NC(=O)N3CCCC3)c2)nc1NCc1ccccc1F` [Example 288, 2-(4-fluoro-3-(pyrrolidine-1-carboxamido)phenylamino)-4-(2-fluorobenzylamino)pyrimidine-5-carboxamide] was 1 to 10 nM.
On to `NC(=O)c1cnc(Nc2cccc(NC(=O)N3CCOCC3)c2)cc1NCc1cccc(F)c1` [Example 308, N-(3-(5-carbamoyl-4-(3-fluorobenzylamino)pyridin-2-ylamino)phenyl)morpholine-4-carboxamide], for which the figures for the 50% inhibitory concentration (IC50) at JAK1, against JAK2 and against JAK3 were 100 to 1000 nM, 10 to 100 nM and 1 to 10 nM, respectively.
The matching figures for `NC(=O)c1cnc(Nc2cccc(NC(=O)N3CCOCC3)c2)cc1N[C@H](CO)c1ccccc1` [Example 314, (S)—N-(3-(5-carbamoyl-4-(2-hydroxy-1-phenylethylamino)pyridin-2-ylamino)phenyl)morpholine-4-carboxamide]: 100 to 1000 nM, 100 to 1000 nM and 1 to 10 nM.
For `CC(=O)Nc1cccc(Nc2cc(NCc3cccnc3)c(C(N)=O)cn2)c1` [Example 321, 6-(3-acetamidophenylamino)-4-(pyridin-3-ylmethylamino)nicotinamide] the same measures were 100 to 1000 nM, 100 to 1000 nM and 10 to 100 nM.
The matching figures for `NC(=O)c1cnc(Nc2cccc(NC(=O)N3CCCC3)c2)cc1N[C@H](CO)c1ccccc1` [Example 315, (S)-4-(2-hydroxy-1-phenylethylamino)-6-(3-(pyrrolidine-1-carboxamido)phenylamino)nicotinamide]: above 1000 nM, 100 to 1000 nM and 1 to 10 nM.
In turn, `NC(=O)c1cnc(Nc2cccc(NC(=O)Cc3ccccn3)c2)nc1NCc1ccccc1F` [Example 300, 4-(2-fluorobenzylamino)-2-(3-(2-(pyridin-2-yl)acetamido)-phenylamino)pyrimidine-5-carboxamide] registered an IC50 against JAK3 below 1 nM.
Same read-out and setting: the value for `NC(=O)c1cnc(Nc2cccc(NC(=O)Cc3cccnc3)c2)nc1NCc1ccccc1F` [Example 297, 4-(2-fluorobenzylamino)-2-(3-(2-(pyridin-3-yl)acetamido)-phenylamino)pyrimidine-5-carboxamide] was 1 to 10 nM.
Still for that read-out and setting: the value for `NC(=O)c1cnc(Nc2cccc(NC(=O)c3cccc(O)n3)c2)nc1NCc1ccccc1F` [Example 298, 4-(2-fluorobenzylamino)-2-(3-(6-hydroxypicolinamido)-phenylamino)pyrimidine-5-carboxamide] was 1 to 10 nM.
With `CC(=O)Nc1cccc(Nc2cc(NCc3cccc(F)c3)c(C(N)=O)cn2)c1` [Example 310, 6-(3-acetamidophenylamino)-4-(3-fluorobenzylamino)nicotinamide], the IC50 on JAK1 was in the range of 100 to 1000 nM; against JAK2, 100 to 1000 nM; on JAK3, 1 to 10 nM.
The compound `CC(=O)Nc1cccc(Nc2ncc(C(N)=O)c(Nc3ccc(NC(=O)CC(F)(F)F)cc3)n2)c1` [Example 303, 2-(3-acetamidophenylamino)-4-(4-(3,3,3-trifluoro-propanamido)phenylamino)pyrimidine-5-carboxamide] had an IC50 against JAK3 of 10 to 100 nM.
Still for that read-out and setting: the value for `NC(=O)c1cnc(Nc2cccc(NC(=O)N3CC[C@@H](O)C3)c2)nc1NCc1ccccc1` [Example 282, (R)-4-(benzylamino)-2-(3-(3-hydroxypyrrolidine-1-carboxamido)phenylamino)pyrimidine-5-carboxamide] was below 1 nM.
The same measure, in the same setting: the value for `NC(=O)c1cnc(Nc2cccc(NC(=O)N3CC[C@H](F)C3)c2)nc1NCc1ccccc1` [Example 284, (S)-4-(benzylamino)-2-(3-(3-fluoropyrrolidine-1-carboxamido)phenylamino)pyrimidine-5-carboxamide] was below 1 nM.
As to `CC(=O)Nc1cccc(Nc2cc(N[C@H](CO)c3ccccc3)c(C(N)=O)cn2)c1` [Example 316, (S)-6-(3-acetamidophenylamino)-4-(2-hydroxy-1-phenylethylamino)nicotinamide], the IC50 on JAK1 lay in the range of 100 to 1000 nM; against JAK2, 100 to 1000 nM; at JAK3, 10 to 100 nM.
`NC(=O)c1cnc(Nc2cccc(NC(=O)N3CC[C@@H](F)C3)c2)nc1NCc1ccccc1` [Example 283, (R)-4-(benzylamino)-2-(3-(3-fluoropyrrolidine-1-carboxamido)phenylamino)pyrimidine-5-carboxamide] came in with an IC50 against JAK3 below 1 nM.
Still for that read-out and setting: the value for `NC(=O)c1cnc(Nc2ccc(F)c(NC(=O)N3CCC3)c2)nc1NCc1ccccc1F` [Example 290, 2-(3-(azetidine-1-carboxamido)-4-fluorophenylamino)-4-(2-fluorobenzylamino)pyrimidine-5-carboxamide] was 1 to 10 nM; that for `NC(=O)c1cnc(Nc2cccc(NC(=O)c3cccnc3)c2)nc1NCc1ccccc1F` [Example 296, 4-(2-fluorobenzylamino)-2-(3-(nicotinamido)-phenylamino)pyrimidine-5-carboxamide] was below 1 nM; that for `NC(=O)c1cnc(Nc2cccc(NC(=O)Cc3ccncc3)c2)nc1NCc1ccccc1F` [Example 299, 4-(2-fluorobenzylamino)-2-(3-(2-(pyridin-4-yl)acetamido)-phenylamino)pyrimidine-5-carboxamide] was below 1 nM.
Same read-out and setting: the value for `NC(=O)c1cnc(Nc2cccc(NC(=O)N3CCCC3)c2)nc1NCC1CCCC1` [Example 281] was 100 to 1000 nM.
Still for that read-out and setting: the value for `CC(=O)Nc1cccc(Nc2ncc(C(N)=O)c(Nc3ccc(NC(=O)C4(C#N)CC4)cc3)n2)c1` [Example 302, 2-(3-acetamidophenylamino)-4-(4-(1-cyanocyclopropane-carboxamido)phenylamino)pyrimidine-5-carboxamide] was 10 to 100 nM; that for `CC(=O)Nc1cccc(Nc2ncc(C(N)=O)c(Nc3ccc(NC(=O)CC#N)cc3)n2)c1` [Example 301, 2-(3-acetamidophenylamino)-4-(4-(2-cyanoacetamido)-phenylamino)pyrimidine-5-carboxamide] was 1 to 10 nM.

For orientation: IC50 means the midpoint of a concentration-inhibition curve.
